Laboratory results as given in paper PMC5607081 (2017).

Tested on: target DNA; 23-bp duplex DNA oligo (DNA, duplex) GCGAATAAGAGGAAGTGAAACCG/CGGTTTCACTTCCTCTTATTCGC
Assay: fluorescence polarization titration
Conditions: 0.20 M NaCl; 10 mM TrisHCl, pH 7.5, 25°C, H2O, no osmolyte; apparent

−log (Kd, M): 9.90 ± 0.12 −log M
Compound: N=C(N)c1ccc2[nH]c(-c3ccc(-c4nc5cc(C(=N)N)ccc5[nH]4)[se]3)nc2c1
